For 28 compounds, IC50 results are on record in US9458140B2, “Furanone compounds as kinase inhibitors” (Eternity Bioscience Inc., priority 2013, dated 2016).

One test concerns the target BRAF^V600E (Homo sapiens (Human), UniProt P15056, V600E). As to the kind of experiment: BRAF^V600E enzymatic activity assay (LanthaScreen kinase assay). The test is classed as biochemical. Conditions: LanthaScreen TR-FRET, ATP 2 μM, 60 minutes, room temperature; read-out: BRAF^V600E Lantha IC50. On the procedure: BRAF^V600E enzymatic activity assay: The BRAF^V600E enzymatic assay was performed using a LanthaScreen kinase assay kit purchased from Life Technologies (Grand Island, N.Y.). The assay was conducted according to the procedure provided in the assay kit. […] The final reaction volume for each reaction was 10 μl. The reaction was stopped by addition of 10 μl of TR-FRET dilution buffer kinase supplemented with kinase quench buffer (10 mM final) and Tb-anti-pMAP2K1 (2 nM final). […] IC50 value was calculated using appropriate programs in GraphPad Prism by plotting the logarithm of the concentration versus percent inhibition.
In general terms: In TR-FRET formats the signal depends on donor and acceptor labels being close together.

The test system of another test is A375 cells. Nature of the test: Cell proliferation assay (CellTiter-Glo), A375 cell growth. The test is classed as cell-based. The conditions noted are these: 3-day treatment. On the procedure: Cell proliferation assay: A375, Colo-205, Calu-6, and SW-480 cells were purchased from American Type Culture Collection (USA). All cells were cultured in the recommended medium and serum concentration. Cells were maintained at 37° C. in a humidified atmosphere with 5% CO2. For cell proliferation assay, cells were seeded in 96-well pates at a density of 1,000 to 5,000 cells per well and cultured overnight at 37° C. in a medium supplemented with 5-10% FBS. On the next day, the test articles at various concentrations or vehicle control (1% DMSO) were added into cell culture. After 3-day treatment, the growth of cells was assayed by the CellTiter-Glo® Luminestceaent Cell Viability Assay (Promega). IC50 value was calculated using GraphPad Prism by plotting the logarithm of the concentration versus percent inhibition of cell growth.

Chain of BRAF^V600E (P15056 whole entry V600E): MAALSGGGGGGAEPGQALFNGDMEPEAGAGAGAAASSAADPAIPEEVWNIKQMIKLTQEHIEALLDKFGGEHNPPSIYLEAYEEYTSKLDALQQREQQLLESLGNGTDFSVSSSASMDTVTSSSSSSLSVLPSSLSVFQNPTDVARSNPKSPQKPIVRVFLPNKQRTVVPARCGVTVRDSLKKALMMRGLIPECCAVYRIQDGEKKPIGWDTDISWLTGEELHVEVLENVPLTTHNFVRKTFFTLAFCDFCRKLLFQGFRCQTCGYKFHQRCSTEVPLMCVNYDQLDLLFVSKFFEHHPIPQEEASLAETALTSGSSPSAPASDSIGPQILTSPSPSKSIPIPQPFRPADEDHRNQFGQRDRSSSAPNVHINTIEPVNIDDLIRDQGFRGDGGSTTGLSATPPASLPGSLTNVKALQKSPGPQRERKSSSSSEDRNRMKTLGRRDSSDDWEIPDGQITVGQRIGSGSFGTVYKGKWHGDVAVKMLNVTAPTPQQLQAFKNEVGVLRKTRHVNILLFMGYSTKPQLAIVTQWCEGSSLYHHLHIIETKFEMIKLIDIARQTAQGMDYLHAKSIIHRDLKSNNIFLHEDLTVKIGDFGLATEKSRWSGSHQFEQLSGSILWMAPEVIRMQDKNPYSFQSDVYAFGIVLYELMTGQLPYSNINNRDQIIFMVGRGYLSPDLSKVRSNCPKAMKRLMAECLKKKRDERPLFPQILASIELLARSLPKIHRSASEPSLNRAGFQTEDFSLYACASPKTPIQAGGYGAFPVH

In general, IC50 refers to the concentration at which inhibition is half-maximal. On to `COC(=O)N[C@@H](C)CNc1nccc(C2=C(c3cccc(NS(=O)(=O)c4c(F)cccc4F)c3F)C(=O)C(C)(CC(C)C)O2)n1` (stereo partly drawn) [Example 7], for which the IC50 at BRAF^V600E came out at 27 nM; with A375 cells (Homo sapiens, A-375, 72 h) it was 870 nM.

Regarding `CC1(C)OC(c2ccnc(N)n2)=C(c2cc(Cl)cc(NS(=O)(=O)c3cccc(F)c3)c2F)C1=O` [Example 14], the IC50 on BRAF^V600E worked out at 1.2 nM; in the test with A375 cells (Homo sapiens, A-375, 72 h), 120 nM. On the same counts, the results for `CC(C)CC1(C)OC(c2ccnc(NCc3nccs3)n2)=C(c2cccc(NS(=O)(=O)c3c(F)cccc3F)c2F)C1=O` (stereo not drawn) [Example 8] are 260 nM and 27000 nM.

Compound `Nc1nccc(C2=C(c3cccc(NS(=O)(=O)c4c(F)cccc4F)c3F)C(=O)C3(CCCC3)O2)n1` [Example 4] displayed an IC50 with A375 cells (Homo sapiens, A-375, 72 h) of 510 nM.

Turning to `Nc1nccc(C2=C(c3cc(Cl)cc(NS(=O)(=O)c4cc(F)ccc4F)c3F)C(=O)C3(CCCC3)O2)n1` [Example 28], the IC50 was 2.6 nM at BRAF^V600E and 11 nM in the test on A375 cells. `COC(=O)N[C@@H](C)CNc1nccc(C2=C(c3cccc(NS(=O)(=O)c4c(F)cccc4F)c3F)C(=O)C(C)(C)O2)n1` [Example 2]: the IC50 was 97 nM at BRAF^V600E and 630 nM in the test with A375 cells (Homo sapiens, A-375, 72 h). Turning to `CC(C)CC1(C)OC(c2ccnc(NC[C@@H]3CCCN3)n2)=C(c2cccc(NS(=O)(=O)c3c(F)cccc3F)c2F)C1=O` (stereo partly drawn) [Example 9], at BRAF^V600E, the IC50 amounted to 2000 nM.

As for `CC1(C)OC(c2ccnc(NCCC#N)n2)=C(c2cc(Cl)cc(NS(=O)(=O)c3c(F)cccc3F)c2F)C1=O` [Example 21], the IC50 is 2.5 nM on BRAF^V600E and 200 nM with A375 cells (Homo sapiens, A-375, 72 h). With `Nc1nccc(C2=C(c3cc(Cl)cc(NS(=O)(=O)c4c(F)cccc4F)c3F)C(=O)C3(CCCC3)O2)n1` [Example 29], the IC50 on BRAF^V600E amounted to 1.3 nM; with A375 cells, 18 nM. Regarding `CC1(C)OC(c2ccnc(N)n2)=C(c2cc(Cl)cc(NS(=O)(=O)c3c(F)cccc3F)c2F)C1=O` [Example 11], in the test on A375 cells (Homo sapiens, A-375, 72 h), half-maximal inhibition (IC50) was put at 18 nM. As to `CCNc1nccc(C2=C(c3cc(Cl)cc(NS(=O)(=O)c4cc(F)ccc4F)c3F)C(=O)C(C)(C)O2)n1` [Example 27], the half-inhibitory concentration (IC50) on BRAF^V600E was determined as 2.8 nM; in the test on A375 cells (Homo sapiens, A-375, 72 h), 320 nM. The matching figures for `COC(=O)N[C@@H](C)CNc1nccc(C2=C(c3cc(Cl)cc(NS(=O)(=O)c4cc(F)ccc4F)c3F)C(=O)C(C)(C)O2)n1` [Example 22]: 50 nM and 180 nM.

As to `CC1(C)OC(c2ccnc(N)n2)=C(c2cc(Cl)cc(NS(=O)(=O)c3ccccc3F)c2F)C1=O` [Example 15], the IC50 amounted to 2.5 nM at BRAF^V600E and 110 nM with A375 cells (Homo sapiens, A-375, 72 h). Regarding `C[C@H](O)CNc1nccc(C2=C(c3cc(Cl)cc(NS(=O)(=O)c4cc(F)ccc4F)c3F)C(=O)C(C)(C)O2)n1` [Example 24], the IC50 on BRAF^V600E is 24 nM; with A375 cells (Homo sapiens, A-375, 72 h), 410 nM. For the compound `CC1(C)OC(c2ccnc(N)n2)=C(c2cc(Cl)cc(NS(=O)(=O)c3cc(F)ccc3F)c2F)C1=O` [Example 12], the half-inhibitory concentration (IC50) stood at 0.6 nM on BRAF^V600E and 1.4 nM with A375 cells (Homo sapiens, A-375, 72 h). For the compound `CCCS(=O)(=O)Nc1cc(Cl)cc(C2=C(c3ccnc(N)n3)OC(C)(CC(C)C)C2=O)c1F` (stereo not drawn) [Example 16], the IC50 is 70 nM at BRAF^V600E and 250 nM with A375 cells (Homo sapiens, A-375, 72 h). Compound `CC1(C)OC(c2ccnc(N)n2)=C(c2cc(Cl)cc(NS(=O)(=O)c3ccc(F)cc3F)c2F)C1=O` [Example 13] registered a 50% inhibitory concentration (IC50) in the test with A375 cells (Homo sapiens, A-375, 72 h) of 350 nM. Regarding `CC(C)CC1(C)OC(c2ccnc(N)n2)=C(c2cccc(NS(=O)(=O)c3c(F)cccc3F)c2F)C1=O` (stereo not drawn) [Example 5], the half-maximal inhibitory concentration (IC50) on BRAF^V600E was 92 nM; with A375 cells (Homo sapiens, A-375, 72 h), 2300 nM. On the same counts, the results for `CC1(C)OC(c2ccnc(NCCC#N)n2)=C(c2cc(Cl)cc(NS(=O)(=O)c3cc(F)ccc3F)c2F)C1=O` [Example 23] are 13 nM and 51 nM. On the same counts, the results for `Nc1nccc(C2=C(c3cccc(NS(=O)(=O)c4c(F)cccc4F)c3Cl)C(=O)C3(CCCC3)O2)n1` [Example 17] are 3.7 nM and 150 nM. On the same counts, the results for `CC(C)CC1(C)OC(c2ccnc(NCCC#N)n2)=C(c2cccc(NS(=O)(=O)c3c(F)cccc3F)c2F)C1=O` (stereo not drawn) [Example 6] are 9.6 nM and 12000 nM. With `COCCNc1nccc(C2=C(c3cc(Cl)cc(NS(=O)(=O)c4cc(F)ccc4F)c3F)C(=O)C(C)(C)O2)n1` [Example 26], the IC50 was determined as 50 nM on BRAF^V600E and 260 nM in the test with A375 cells (Homo sapiens, A-375, 72 h). The matching figures for `CC1(C)OC(c2ccnc(NCCO)n2)=C(c2cc(Cl)cc(NS(=O)(=O)c3cc(F)ccc3F)c2F)C1=O` [Example 25]: 11 nM and 160 nM.

For `CC1(C)OC(c2ccnc(NCCC#N)n2)=C(c2cccc(NS(=O)(=O)c3c(F)cccc3F)c2F)C1=O` [Example 3], the 50% inhibitory concentration (IC50) on BRAF^V600E worked out at 13 nM; in the test on A375 cells (Homo sapiens, A-375, 72 h), 470 nM.

For the compound `CC(C)CC1(C)OC(c2ccnc(NCCC#N)n2)=C(c2cc(Cl)cc(NS(=O)(=O)c3c(F)cccc3F)c2F)C1=O` (stereo not drawn) [Example 20], the half-inhibitory concentration (IC50) was 29 nM on BRAF^V600E and 160 nM with A375 cells (Homo sapiens, A-375, 72 h). As for `CC(C)CC1(C)OC(c2ccnc(NCC3CCCO3)n2)=C(c2cccc(NS(=O)(=O)c3c(F)cccc3F)c2F)C1=O` (stereo not drawn) [Example 10], at BRAF^V600E, the IC50 amounted to 750 nM. As for `Nc1nccc(C2=C(c3cc(Cl)cc(NS(=O)(=O)c4c(F)cccc4F)c3Cl)C(=O)C3(CCCC3)O2)n1` [Example 18], the IC50 at BRAF^V600E turned out to be 2.4 nM; in the test on A375 cells (Homo sapiens, A-375, 72 h), 7 nM. As to `CC(C)CC1(C)OC(c2ccnc(N)n2)=C(c2cc(Cl)cc(NS(=O)(=O)c3c(F)cccc3F)c2F)C1=O` (stereo not drawn) [Example 19], the IC50 at BRAF^V600E was 27 nM; with A375 cells (Homo sapiens, A-375, 72 h), 41 nM.
